Article PMC10377513, “Goldilocks Dilemma: LPS Works Both as the Initial Target and a Barrier for the Antimicrobial Action of Cationic AMPs on E. coli” (Biomolecules, 2023)
In brackets after ≈: the same amount, converted by molar mass. Residues, ends and D or L forms follow the SMILES beside them.

Columns and labels:
[1] = test system: E. coli CCUG 70662
Method: (§1) The bacterial strains tested were E. coli ATCC 25922, E. coli […], and E. coli NR-698. The MIC assays followed the CLSI guidelines. Overnight cultures and MIC assays were performed in MHBII (212322, Becton, Dickson and Company, Sparks, MD, USA). In addition, E. coli […] was tested after cultivation with 4 µg/mL of colistin to induce alternation in surface charge.
(§2) The antimicrobial activity of the five cyclic cationic AMPs was determined against S. aureus, P. aeruginosa, and three strains of E. coli: ATCC 25922, LPS colistin-resistant strain CCUG 70662, and LPS deficient strain NR 698 (Table 1). CCUG 70662 was cultivated in two conditions, both in the absence (−) and in the presence (+) of colistin (4 µg/mL). Resistance development can be monitored by measuring changes in the ζ-potential, reflecting the overall charge of the bacteria. […] In the NR 698 strain, translocation of LPS from the periplasmic space to the outer leaflet is hindered.

[2] = test system: E. coli NR 698; settings: LPS deficient strain; CLSI guidelines, MHBII
Method: as §1, §2

[3] = test system: E. coli ATCC 25922 live cells; experiment: Live cell NMR (1H signal attenuation on cell titration); format: binding; settings: E. coli ATCC 25922 cells titrated into 1 mg/mL peptide, Tris buffer pH 7.4, 298 K; KD in estimated lipid concentration, Shortridge fit; read-out: KD from live cell NMR
Method: (§3) NMR spectra were acquired on a Bruker Avance III HD spectrometer operating at 600 MHz for ^1H, equipped with an inverse TCl cryo probe. All NMR spectra were acquired at 298 K using 5 mm tubes using standard pulse programs.
(§4) E. coli strains ATCC 25922, CCUG 70662, and NR 698 were grown until OD600 ≈ 0.6–0.8 in standard Lysogeny Broth at 37 °C from overnight colonies on agar plates. This allowed bacterial cultures to reach an exponential state of growth. CCUG 70662 was cultivated with and without 4 µg/mL of colistin in both agar and broth to allow for modification of the lipid A part of LPS [33]. After that, cells were carefully centrifuged by 6000× g for 10 min, the supernatant was discarded, and the cell pellet was resuspended in 10 mM Tris buffer with 100 mM NaCl and pH 7.4. The process was repeated two more times to wash out broth components and leftover colistin. […] The part of samples was diluted to OD = 1 in Tris buffer, and zeta potential was measured on Malvern Zetasizer Nano (Malvern Ins., Malvern, UK). […]
(§5) For the live cell NMR, the same E. coli strains as for the MIC testing (see above) were used. […] To measure the initial AMP:bacterial cell binding, we titrated an increasing number of cells into a known and fixed concentration of AMP and monitored the signal attenuation of the peptide (Figure 4A,B). […]

[4] = test system: E. coli NR 698 live cells; experiment: as above; format: binding; settings: E. coli NR 698 cells titrated into 1 mg/mL peptide, Tris buffer pH 7.4, 298 K; KD in estimated lipid concentration, Shortridge fit; read-out: KD from live cell NMR
Method: as §3, §4, §5

[5] = test system: E. coli ATCC 25922 lysate; experiment: NMR line shape analysis with sonicated cell lysate; format: binding; settings: ATCC 25922 lysate versus live cells
Method: as §3, §4, §5

[6] = test system: P. aeruginosa ATCC 27853; settings: CLSI guidelines, MHBII; cited from earlier work
Method: Table 1 MIC and ζ potentials for the tested peptides against P. aeruginosa, S. aureus, and the three E. coli strains: ATCC 25922, LPS deficient—NR 698, and colistin-resistant CCUG 70662, which was tested after cultivation with (+) and without (−) 4 µg/mL of colistin, which caused a decrease of negative charge of the cell wall. MIC values for P. aeruginosa, S. aureus, and E. coli ATCC 25922 are rep | column: MIC (µg/mL) / P. aeruginosa ATCC 27853

[7] = test system: S. aureus ATCC 9144; settings: CLSI guidelines, MHBII; cited from earlier work
Method: Table 1 MIC and ζ potentials for the tested peptides against P. aeruginosa, S. aureus, and the three E. coli strains: ATCC 25922, LPS deficient—NR 698, and colistin-resistant CCUG 70662, which was tested after cultivation with (+) and without (−) 4 µg/mL of colistin, which caused a decrease of negative charge of the cell wall. MIC values for P. aeruginosa, S. aureus, and E. coli ATCC 25922 are rep | column: MIC (µg/mL) / S. aureus ATCC 9144

[8] = test system: E. coli ATCC 25922; settings: CLSI guidelines, MHBII; cited from earlier work
Method: Table 1 MIC and ζ potentials for the tested peptides against P. aeruginosa, S. aureus, and the three E. coli strains: ATCC 25922, LPS deficient—NR 698, and colistin-resistant CCUG 70662, which was tested after cultivation with (+) and without (−) 4 µg/mL of colistin, which caused a decrease of negative charge of the cell wall. MIC values for P. aeruginosa, S. aureus, and E. coli ATCC 25922 are rep | column: MIC (µg/mL) / E. coli ATCC 25922

N=C(N)NCCC[C@@H]1NC(=O)[C@H](Cc2c[nH]c3ccccc23)NC(=O)[C@H](CCCNC(=N)N)NC(=O)[C@H](Cc2c[nH]c3ccccc23)NC(=O)[C@H](CCCNC(=N)N)NC(=O)[C@H](Cc2c[nH]c3ccccc23)NC1=O [c(WRWRWR)] (HELM PEPTIDE1{W.R.W.R.W.R}$PEPTIDE1,PEPTIDE1,1:R1-6:R2$$$V2.0)
MIC E. coli CCUG 70662+ [1]: 32 µg/mL (≈ 31.2 µM) | MIC E. coli CCUG 70662− [1]: 16 µg/mL (≈ 15.6 µM) | MIC E. coli NR 698 [2]: 2 µg/mL (≈ 1.95 µM) | Kd [3]: 50 to 200 µM | Kd [4]: > 500 µM | Increase in KD after sonication (lysate versus live cell ATCC 25922) [5]: two-fold | MIC P. aeruginosa ATCC 27853 [6]: 64 µg/mL (≈ 62.3 µM) | MIC S. aureus ATCC 9144 [7]: 32 µg/mL (≈ 31.2 µM) | MIC E. coli ATCC 25922 [8]: 32 µg/mL (≈ 31.2 µM)
